“And” between values parts separate entries of the source, which are not always exact repeats. Equal entries are not always repeated.
How the values were obtained:
[1] = tested on: UGT enzymes of human liver microsomes; assay: Kinetic and Ki studies of inhibitors of 7-HFC glucuronidation in human liver microsomes; type: biochemical; details: for Inhibition Type: highest inhibitor concentration only; for Ki: highest inhibitor concentration only (tannic acid 0, 25; octyl gallate and gallocatechin gallate 0, 200 μM), read-out: Ki (apparent), 7-HFC glucuronidation
[2] = tested on: UGT enzymes of human liver microsomes; assay: Inhibition of 2ME2 glucuronidation (MG1, MG2) in human liver microsomes; type: biochemical; details: liver 062101, 2ME2 50 μM
Text: Compounds were eluted using a binary solvent gradient system where solvent A was dilute phosphoric acid (pH 3) and solvent B was 80:20 acetonitrile-methanol. […] Detection was at 280 nm.

[3] = target: T1, UGT1A10 (Homo sapiens, UniProt Q9HAW8); assay: Inhibition of raloxifene glucuronidation by recombinant UGT1A10 Bacculosomes
T1 sequence (Q9HAW8 26-530): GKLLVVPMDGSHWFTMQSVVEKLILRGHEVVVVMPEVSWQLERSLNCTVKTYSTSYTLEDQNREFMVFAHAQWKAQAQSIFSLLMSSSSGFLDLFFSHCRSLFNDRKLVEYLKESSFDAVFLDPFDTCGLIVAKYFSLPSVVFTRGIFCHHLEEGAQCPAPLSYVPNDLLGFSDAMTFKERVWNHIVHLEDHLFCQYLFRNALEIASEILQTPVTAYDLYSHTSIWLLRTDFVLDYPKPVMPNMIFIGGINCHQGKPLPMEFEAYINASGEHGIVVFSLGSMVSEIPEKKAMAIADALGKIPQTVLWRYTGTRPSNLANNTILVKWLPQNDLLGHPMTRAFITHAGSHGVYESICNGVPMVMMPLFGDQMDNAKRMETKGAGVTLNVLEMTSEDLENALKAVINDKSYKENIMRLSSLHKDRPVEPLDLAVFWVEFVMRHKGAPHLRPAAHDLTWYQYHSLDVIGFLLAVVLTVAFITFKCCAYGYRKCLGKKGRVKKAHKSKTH
Method: (§1) Compounds were eluted using a binary solvent gradient system. Solvent A was water brought to pH 8 with NH4OH. Solvent B was methanol. Solvent flow rate was 1 ml/min and the column temperature was maintained at 50° C. Detection was at 280 nm. […] The system was then returned to the initial conditions and equilibrated for 3 min.

[4] = target: T2, UGT1A3 (Homo sapiens, UniProt P35503); assay: in vitro
T2 sequence (P35503 29-534): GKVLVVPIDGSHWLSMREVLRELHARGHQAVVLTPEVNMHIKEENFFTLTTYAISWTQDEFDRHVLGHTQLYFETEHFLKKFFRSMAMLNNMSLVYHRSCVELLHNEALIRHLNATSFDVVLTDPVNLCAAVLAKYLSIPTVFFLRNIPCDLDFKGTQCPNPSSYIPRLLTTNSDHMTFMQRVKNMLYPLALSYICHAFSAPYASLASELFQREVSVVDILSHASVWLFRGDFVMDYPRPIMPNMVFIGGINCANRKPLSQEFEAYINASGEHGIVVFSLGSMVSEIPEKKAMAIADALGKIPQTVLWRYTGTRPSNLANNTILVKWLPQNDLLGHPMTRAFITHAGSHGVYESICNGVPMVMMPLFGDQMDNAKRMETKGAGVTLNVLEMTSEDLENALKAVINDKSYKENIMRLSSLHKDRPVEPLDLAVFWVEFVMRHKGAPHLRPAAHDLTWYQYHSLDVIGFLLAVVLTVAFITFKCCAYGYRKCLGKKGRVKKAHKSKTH
Method: as §1

[5] = target: T3, UGT1A9 (Homo sapiens, UniProt O60656); assay: in vitro
T3 sequence (O60656 26-530): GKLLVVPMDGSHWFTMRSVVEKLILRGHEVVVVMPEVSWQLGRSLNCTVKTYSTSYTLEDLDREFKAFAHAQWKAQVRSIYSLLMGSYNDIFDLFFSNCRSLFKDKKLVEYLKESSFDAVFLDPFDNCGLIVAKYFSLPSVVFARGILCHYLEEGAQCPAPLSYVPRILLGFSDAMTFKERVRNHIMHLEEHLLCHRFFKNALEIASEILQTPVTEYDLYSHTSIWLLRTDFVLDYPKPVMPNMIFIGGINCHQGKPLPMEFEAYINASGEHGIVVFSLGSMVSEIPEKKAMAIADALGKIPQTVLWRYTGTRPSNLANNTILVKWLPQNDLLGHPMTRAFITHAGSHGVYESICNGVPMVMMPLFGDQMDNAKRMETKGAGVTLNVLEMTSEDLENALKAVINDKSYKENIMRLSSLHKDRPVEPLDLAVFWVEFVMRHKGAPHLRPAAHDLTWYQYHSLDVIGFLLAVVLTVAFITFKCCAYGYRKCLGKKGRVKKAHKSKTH
Method: as §1

[6] = target: T1, UGT1A10; assay: in vitro; details: pH 7.5, % of control metabolism
Method: as §1

[7] = tested on: UGT enzymes of human liver microsomes; assay: Inhibition of 7-HFC glucuronidation in human liver microsomes; type: biochemical; details: 7-HFC 50 μM, human liver microsomes 100 μg/ml, 15 min
[8] = tested on: UGT enzymes of human liver microsomes; assay: Inhibition of labetalol glucuronidation (LG1, LG2) in human liver microsomes; type: biochemical; details: labetalol 50 μM
[9] = human, Bacculosomes with recombinant human UGT1A10, pH 7.5, probe raloxifene 50 μM, formation of glucuronide G1, % of control metabolism, raloxifene G1, UGT1A10, inhibitor 25 μM
[10] = human, Bacculosomes with recombinant human UGT1A10, pH 7.5, probe raloxifene 50 μM, formation of glucuronide G1, % of control metabolism, raloxifene G1, UGT1A10, inhibitor 50 μM
[11] = human, Bacculosomes with recombinant human UGT1A10, pH 7.5, probe raloxifene 50 μM, formation of glucuronide G2, % of control metabolism, raloxifene G2, UGT1A10, inhibitor 25 μM
[12] = human, Bacculosomes with recombinant human UGT1A10, pH 7.5, probe raloxifene 50 μM, formation of glucuronide G2, % of control metabolism, raloxifene G2, UGT1A10, inhibitor 50 μM
[13] = pH 7.5, % of control metabolism, raloxifene G1
[14] = pH 7.5, % of control metabolism, raloxifene G2
[15] = pH 7.5, Inhibition of raloxifene glucuronidation, G1, UGT1A3
[16] = pH 7.5, Inhibition of raloxifene glucuronidation, G2, UGT1A3
[17] = pH 7.5, Inhibition of raloxifene glucuronidation, UGT1A9, first line per inhibitor (G1)
[18] = pH 7.5, Inhibition of raloxifene glucuronidation, UGT1A9, second line per inhibitor (G2)

Row | Compound | Inhibition Type [1] | Ki [1] [µM] | residual metabolism (% of control), 2ME2 MG1 ([2]; inhibitor 10 μM) | residual metabolism (% of control), 2ME2 MG2 ([2]; inhibitor 10 μM) | activity at 15 min, 50 µM [3, 10] [%] | activity at 15 min, 50 µM [3, 12] [%] | activity at 15 min, 50 µM [4, 13] [%] | activity at 15 min, 50 µM [4, 14] [%] | activity at 15 min, 50 µM [4, 15] [%] | activity at 15 min, 50 µM [4, 16] [%] | activity at 15 min, 50 µM [5, 13] [%] | activity at 15 min, 50 µM [5, 14] [%] | activity at 15 min, 50 µM ([6]; raloxifene G1) [%] | activity at 15 min, 50 µM ([6]; raloxifene G2) [%] | inhibition of raloxifene glucuronidation, in words ([3]; UGT1A10) | further results
1 | O=C(O[C@@H]1Cc2c(O)cc(O)cc2O[C@H]1c1cc(O)c(O)c(O)c1)c1cc(O)c(O)c(O)c1 [Gallocatechin gallate] | Non-competitive | 40 ± 3 | 56 (1) % | 84 (1) % | 49 | 48 | – | – | – | – | – | – | – | – | – | Inhibition Type ([1]; listed as gallocatechin gallate): strictly non-competitive; activity at 15 min, 25 µM [3, 9]: 64%; activity at 15 min, 25 µM [3, 11]: 68%
2 | O=C(O[C@@H]1Cc2c(O)cc(O)cc2O[C@@H]1c1ccc(O)c(O)c1)c1cc(O)c(O)c(O)c1 [Epicatechin gallate] | – | – | – | – | – | – | 57 | 42 | 57 | 42 | 48 | 45 | 54 | 51 | – | –
3 | CCCOC(=O)c1cc(O)c(O)c(O)c1 [Propyl gallate] | – | – | – | – | – | – | 55 | 56 | 55 | 56 | 48 | 51 | 80 | 72 | – | % of control metabolism (SD, n = 3), 7-HFC glucuronidation ([7]; inhibitor 1000 μM): 46 (1) %; % of control metabolism (SD, n = 3), 7-HFC glucuronidation ([7]; inhibitor 2000 μM): 32 (0) %; activity at 15 min, 25 µM [4, 15]: 72%; activity at 15 min, 25 µM [4, 16]: 79%
4 | O=c1c(O)c(-c2ccc(O)c(O)c2)oc2cc(O)cc(O)c12 [Quercetin] | – | – | – | – | – | – | – | – | – | – | – | – | 55 | 48 | only a modest effect | residual metabolism (percentage of control), labetalol LG1 ([8]; inhibitor 500 μM): 36 (3) %; residual metabolism (percentage of control), labetalol LG2 ([8]; inhibitor 500 μM): 23 (1) %; activity at 15 min, 25 µM ([6]; raloxifene G1): 80%; activity at 15 min, 25 µM ([6]; raloxifene G2): 80%
5 | O=C(OC[C@H]1O[C@@H](OC(=O)c2cc(O)c(O)c(OC(=O)c3cc(O)c(O)c(O)c3)c2)[C@H](OC(=O)c2cc(O)c(O)c(OC(=O)c3cc(O)c(O)c(O)c3)c2)[C@@H](OC(=O)c2cc(O)c(O)c(OC(=O)c3cc(O)c(O)c(O)c3)c2)[C@@H]1OC(=O)c1cc(O)c(O)c(OC(=O)c2cc(O)c(O)c(O)c2)c1)c1cc(O)c(O)c(OC(=O)c2cc(O)c(O)c(O)c2)c1 [Tannic acid] | Non-competitive | 5.4 ± 0.4 | 24 (1) % | 69 (6) % | 10 | 8 | – | – | – | – | – | – | – | – | – | % of control metabolism (SD, n = 3), 7-HFC glucuronidation ([7]; inhibitor 5 μM): 72 (1) %; % of control metabolism (SD, n = 3), 7-HFC glucuronidation ([7]; inhibitor 10 μM): 47 (2), % and 50 (1) %; residual metabolism (percentage of control), labetalol LG1 ([8]; inhibitor 10 μM): 91 (2) %; residual metabolism (percentage of control), labetalol LG2 ([8]; inhibitor 10 μM): 88 (4) %; residual metabolism (percentage of control), labetalol LG1 ([8]; inhibitor 25 μM): 56 (2) %; residual metabolism (percentage of control), labetalol LG2 ([8]; inhibitor 25 μM): 51 (6) %; residual metabolism (% of control), 2ME2 MG1 ([2]; inhibitor 2 μM): 62 (2) %; residual metabolism (% of control), 2ME2 MG2 ([2]; inhibitor 2 μM): 105 (3) %; residual metabolism (% of control), 2ME2 MG1 ([2]; inhibitor 5 μM): 39 (0) %; residual metabolism (% of control), 2ME2 MG2 ([2]; inhibitor 5 μM): 91 (5) %; activity at 15 min, 25 µM [3, 9]: 56%; activity at 15 min, 25 µM [3, 11]: 53%
6 | C=CCc1ccc(O)c(OC)c1 [Eugenol] | – | – | – | – | – | – | 89 | 85 | 89 | 85 | 32 | 29 | 85 | 81 | ineffective | activity at 15 min, 25 µM [5, 13]: 56%; activity at 15 min, 25 µM [5, 14]: 51%; activity at 15 min, 25 µM [5, 17]: 56%; activity at 15 min, 50 µM [5, 17]: 32%; activity at 15 min, 25 µM [5, 18]: 51%; activity at 15 min, 50 µM [5, 18]: 29%
7 | CC/C(=C(/CC)c1ccc(O)cc1)c1ccc(O)cc1 [Diethylstilbestrol, reference compound] | – | – | 72 (2) % | 632 (4) % | 50 | 39 | – | – | – | – | – | – | – | – | – | % of control metabolism (SD, n = 3), 7-HFC glucuronidation ([7]; inhibitor 5 μM): 90 (3) %; % of control metabolism (SD, n = 3), 7-HFC glucuronidation ([7]; inhibitor 10 μM): 80 (4) %; residual metabolism (percentage of control), labetalol LG1 ([8]; inhibitor 10 μM): 66 (6) %; residual metabolism (percentage of control), labetalol LG2 ([8]; inhibitor 10 μM): 68 (7) %; residual metabolism (percentage of control), labetalol LG1 ([8]; inhibitor 25 μM): 39 (1) %; residual metabolism (percentage of control), labetalol LG2 ([8]; inhibitor 25 μM): 45 (3) %; residual metabolism (% of control), 2ME2 MG1 ([2]; inhibitor 1 μM): 88 (2) %; residual metabolism (% of control), 2ME2 MG2 ([2]; inhibitor 1 μM): 335 (5) %; activity at 15 min, 10 µM ([3]; human, Bacculosomes with recombinant human UGT1A10, pH 7.5, % of control metabolism, raloxifene glucuronide (one value printed, G1 or G2 not stated), UGT1A10, inhibitor 10 μM): 70%; activity at 15 min, 25 µM ([3]; human, Bacculosomes with recombinant human UGT1A10, pH 7.5, % of control metabolism, raloxifene glucuronide (one value printed, G1 or G2 not stated), UGT1A10, inhibitor 25 μM): 74%
8 | O=C(O)c1cc(-c2ccc(F)cc2F)ccc1O [Diflunisal, reference compound] | – | – | – | – | – | – | 83 | 81 | 83 | 81 | 50 | 43 | 90 | 90 | – | residual metabolism (percentage of control), labetalol LG1 ([8]; inhibitor 500 μM): 43 (5) %; residual metabolism (percentage of control), labetalol LG2 ([8]; inhibitor 500 μM): 35 (2) %
9 | CCCCCCCCOC(=O)c1cc(O)c(O)c(O)c1 [Octyl gallate] | strictly non-competitive | 16 ± 2 | – | – | 63 | 71 | – | – | – | – | – | – | – | – | very poor inhibitor | –
10 | O=C(O[C@@H]1Cc2c(O)cc(O)cc2O[C@@H]1c1cc(O)c(O)c(O)c1)c1cc(O)c(O)c(O)c1 [Epigallocatechin gallate] | – | – | – | – | – | – | – | – | – | – | – | – | – | – | – | % of control metabolism, raloxifene G1 ([3]; UGT1A10, inhibitor 25 μM): 68 (1) %; % of control metabolism, raloxifene G2 ([3]; UGT1A10, inhibitor 25 μM): 73 (1) %; % of control metabolism, raloxifene G1 ([3]; UGT1A10, inhibitor 50 μM): 37 (2) %; % of control metabolism, raloxifene G2 ([3]; UGT1A10, inhibitor 50 μM): 37 (1) %

— US20030215462A1, “Use of UGT inhibitors to increase bioavailability” (priority 2001, published 2003)
